System: LPS-induced TNF-α release in peripheral blood mononuclear cells (PBMCs)
Test: In vitro determination of PDE4 inhibitory activity in the PBMCs assay (LPS-induced TNF-α release)
Format: cell-based
Conditions: PBMC; human PBMCs, LPS 3 ng/ml, 18 hours; read-out: PDE4 inhibition (IC50, 50% inhibition of LPS-induced TNF-α release)
Protocol: The assay, which is based on the known inhibitory activity exerted by PDE4 inhibitors on the lipopolyshaccarides (LPS)-induced tumour necrosis factor-alpha (TNF-α release in peripheral blood mononuclear cells (PBMCs), was performed according to a method previously described (Hatzelmann A et al., J. Pharmacol. Exp. Ther., 2001; 297:267-279; and Draheim R et al., J. Pharmacol. Exp. Ther., 2004; 308:555-563, both of which are incorporated herein by reference in their entireties. Cryopreserved human PBMCs, (100 μl/well) were incubated in 96-well plates (10^5 cells/well), for 30 minutes, in the presence or absence (50 microl) of the test compounds whose concentrations ranged from 10^−12 M to 10^−6 M or from 10^−13 M to 10^−7 M. Subsequently, LPS (3 ng/ml) was added. After 18 hours of incubation at 37° C. in a humidified incubator under an atmosphere of 95% air and 5% CO2, culture medium was collected and TNF-α measured by ELISA.
The results of the tested compounds, representatives of the invention, expressed as mean±95% confidence limits of the molar concentration of the test compound producing 50% inhibition of LPS-induced TNF-α release (IC50) are shown in the following Table: […]

CS(=O)(=O)N(CCN1CCOCC1)Cc1ccc2c(c1)C(=O)N(CC(=O)O[C@@H](Cc1c(Cl)c[n+]([O-])cc1Cl)c1ccc(OC(F)F)c(OCC3CC3)c1)C2=O [Compound 258, (S)-3,5-dichloro-4-(2-(3-(cyclopropylmethoxy)-4-(difluoromethoxy)phenyl)-2-(2-(5-((N-(2-morpholinoethyl)methylsulfonamido)methyl)-1,3-dioxoisoindolin-2-yl)acetoxy)ethyl)pyridine 1-oxide] and CS(=O)(=O)Nc1ccc2c(c1)C(=O)N(CC(=O)O[C@@H](Cc1c(Cl)c[n+]([O-])cc1Cl)c1ccc(OC(F)F)c(OCC3CC3)c1)C2=O [Compound 167, (S)-3,5-dichloro-4-(2-(3-(cyclopropylmethoxy)-4-(difluoromethoxy)phenyl)-2-(2-(5-(methylsulfonamido)-1,3-dioxoisoindolin-2-yl)acetoxy)ethyl)pyridine 1-oxide] cannot be ordered by IC50: under 1 nM for the first, under 1 nM for the second.

O=C(CN1C(=O)c2cc(Cl)c(Cl)cc2C1=O)O[C@@H](Cc1c(Cl)c[n+]([O-])cc1Cl)c1ccc(OC(F)F)c(OCC2CC2)c1 [Compound 19] and COc1cc2c(cc1OC)C(=O)N(CC(=O)O[C@@H](Cc1c(Cl)c[n+]([O-])cc1Cl)c1ccc(OC(F)F)c(OCC3CC3)c1)C2=O [Compound 156, (S)-3,5-dichloro-4-(2-(3-(cyclopropylmethoxy)-4-(difluoromethoxy)phenyl)-2-(2-(5,6-dimethoxy-1,3-dioxoisoindolin-2-yl)acetoxy)ethyl)pyridine 1-oxide] cannot be ordered by IC50: under 1 nM for the first, under 1 nM for the second.

First: CS(=O)(=O)N(CCN1CCOCC1)c1cccc2c1ccn2CC(=O)O[C@@H](Cc1c(Cl)c[n+]([O-])cc1Cl)c1ccc(OC(F)F)c(OCC2CC2)c1 [Compound 233, (S)-3,5-dichloro-4-(2-(3-(cyclopropylmethoxy)-4-(difluoromethoxy)phenyl)-2-(2-(4-(N-(2-morpholinoethyl)methylsulfonamido)-1H-indol-1-yl)acetoxy)ethyl)pyridine 1-oxide]
Second: O=C(Cn1c(=O)c2ccccc2n(CCN2CCOCC2)c1=O)O[C@@H](Cc1c(Cl)c[n+]([O-])cc1Cl)c1ccc(OC(F)F)c(OCC2CC2)c1 [Compound 39]
The IC50 of the first is higher: 1 to 10 nM for the first, under 1 nM for the second.

COc1cc2c(cc1OC)CN(CC(=O)O[C@@H](Cc1c(Cl)c[n+]([O-])cc1Cl)c1ccc(OC(F)F)c(OCC3CC3)c1)CC2 [Compound 105, (S)-3,5-dichloro-4-(2-(3-(cyclopropylmethoxy)-4-(difluoromethoxy)phenyl)-2-(2-(6,7-dimethoxy-3,4-dihydroisoquinolin-2(1H)-yl)acetoxy)ethyl)pyridine 1-oxide] and COc1ccc2c(c1)C(=O)C(=O)N2CC(=O)O[C@@H](Cc1c(Cl)c[n+]([O-])cc1Cl)c1ccc(OC(F)F)c(OCC2CC2)c1 [Compound 57, (S)-3,5-dichloro-4-(2-(3-(cyclopropylmethoxy)-4-(difluoromethoxy)phenyl)-2-(2-(5-methoxy-2,3-dioxoindolin-1-yl)acetoxy)ethyl)-pyridine 1-oxide] cannot be ordered by IC50: under 1 nM for the first, under 1 nM for the second.

O=C(CN1C(=O)c2ccc(NO)cc2C1=O)O[C@@H](Cc1c(Cl)c[n+]([O-])cc1Cl)c1ccc(OC(F)F)c(OCC2CC2)c1 [Compound 169, (S)-3,5-dichloro-4-(2-(3-(cyclopropylmethoxy)-4-(difluoromethoxy)phenyl)-2-(2-(5-(hydroxyamino)-1,3-dioxoisoindolin-2-yl)acetoxy)ethyl)pyridine 1-oxide] and O=C(CN1C(=O)c2cccc(NO)c2C1=O)O[C@@H](Cc1c(Cl)c[n+]([O-])cc1Cl)c1ccc(OC(F)F)c(OCC2CC2)c1 [Compound 170] cannot be ordered by IC50: under 1 nM for the first, under 1 nM for the second.

First: COCC(=O)Nc1cccc2c1C(=O)N(CC(=O)O[C@@H](Cc1c(Cl)c[n+]([O-])cc1Cl)c1ccc(OC(F)F)c(OCC3CC3)c1)C2=O [Compound 173, (S)-3,5-dichloro-4-(2-(3-(cyclopropylmethoxy)-4-(difluoromethoxy)phenyl)-2-(2-(4-(2-methoxyacetamido)-1,3-dioxoisoindolin-2-yl)acetoxy)ethyl)pyridine 1-oxide]
Second: O=C(CN1C(=O)Cc2ccccc2C1=O)O[C@@H](Cc1c(Cl)c[n+]([O-])cc1Cl)c1ccc(OC(F)F)c(OCC2CC2)c1 [Compound 263, (S)-3,5-dichloro-4-(2-(3-(cyclopropylmethoxy)-4-(difluoromethoxy)phenyl)-2-(2-(1,3-dioxo-3,4-dihydroisoquinolin-2(1H)-yl)acetoxy)ethyl)pyridine 1-oxide]
The IC50 of the first is lower: under 1 nM for the first, 1 to 10 nM for the second. The first is the more potent here.

First: O=C(CN1C(=O)c2ccccc2S1(=O)=O)O[C@@H](Cc1c(Cl)c[n+]([O-])cc1Cl)c1ccc(OC(F)F)c(OCC2CC2)c1 [Compound 102, (S)-3,5-dichloro-4-(2-(3-(cyclopropylmethoxy)-4-(difluoromethoxy)phenyl)-2-(2-(1,1-dioxido-3-oxobenzo[d]isothiazol-2(3H)-yl)acetoxy)ethyl)pyridine 1-oxide]
Second: CS(=O)(=O)Nc1cn(CC(=O)O[C@@H](Cc2c(Cl)c[n+]([O-])cc2Cl)c2ccc(OC(F)F)c(OCC3CC3)c2)c2ccccc12 [Compound 93, (S)-3,5-dichloro-4-(2-(3-(cyclopropylmethoxy)-4-(difluoromethoxy)phenyl)-2-(2-(3-(methylsulfonamido)-1H-indol-1-yl)acetoxy)ethyl)pyridine 1-oxide]
The IC50 of the first is lower: under 1 nM for the first, 1 to 10 nM for the second.

Cc1noc(C)c1CN(c1ccc2c(c1)C(=O)N(CC(=O)O[C@@H](Cc1c(Cl)c[n+]([O-])cc1Cl)c1ccc(OC(F)F)c(OCC3CC3)c1)C2=O)S(C)(=O)=O [Compound 191] and Cn1cnc2c1c(=O)n(CC(=O)O[C@@H](Cc1c(Cl)c[n+]([O-])cc1Cl)c1ccc(OC(F)F)c(OCC3CC3)c1)c(=O)n2C [Compound 20] cannot be ordered by IC50: under 1 nM for the first, under 1 nM for the second.

O=C(Cn1c(=O)n(CCN2CCOCC2)c(=O)c2ccccc21)O[C@@H](Cc1c(Cl)c[n+]([O-])cc1Cl)c1ccc(OC(F)F)c(OCC2CC2)c1 [Compound 38] and CSCCC(C(=O)OC(Cc1c(Cl)c[n+]([O-])cc1Cl)c1ccc(OC(F)F)c(OCC2CC2)c1)N1C(=O)c2ccccc2C1=O (stereo not shown) [Compound 15] cannot be ordered by IC50: under 1 nM for the first, under 1 nM for the second.

System: not given
Test: not given
Conditions: human, microsomes

With O=C(Cn1c(=O)oc2ccccc21)O[C@@H](Cc1c(Cl)c[n+]([O-])cc1Cl)c1ccc(OC(F)F)c(OCC2CC2)c1 [Compound 24] the “intrinsic Clearance” value was over 15 mL/min/g.

— patent US9024027B2, “Derivatives of 1-phenyl-2-pyridinyl alkyl alcohols as phosphodiesterase inhibitors” (Chiesi Farmaceutici S.p.A., priority 2011, dated 2015)
